# Test results from publication PMC7580997 (Journal of medicinal chemistry, 2019).
# Key:
# A549 cells = test: IncuCyte S3 Caspase-3/7 apoptosis assay, A549; assay type: cell-based; details: nanomolar concentration
# HA-BIR3 of XIAP = HA-BIR3 of XIAP (Homo sapiens, UniProt P98170); test: Western blot; assay type: cell-based; details: HEK293T, 10 μM, 6 h
# Plasma stability = assay type: in vitro ADME; details: mouse plasma 80% in PBS pH 7.4, 37 °C, 200 μM
# SK-MEL-28 cells = test: IncuCyte S3 Caspase-3/7 apoptosis assay, SK-MEL-28; assay type: cell-based, human; details: SK-MEL-28, co-treatment with TNFα, nanomolar concentration
# [1] = Solubility and chemical stability in aqueous buffer by 1H 1D NMR; assay type: physicochemical; details: aqueous buffer pH = 7.5, T = 25 °C
# BIR3 domain of cIAP1 = BIR3 domain of cIAP1 (Homo sapiens, UniProt Q13490); test: LC-MS of protein-compound covalent adduct, cIAP1-BIR3
# Sequence of BIR3 domain of cIAP1 (Q13490 258-363 limits assumed): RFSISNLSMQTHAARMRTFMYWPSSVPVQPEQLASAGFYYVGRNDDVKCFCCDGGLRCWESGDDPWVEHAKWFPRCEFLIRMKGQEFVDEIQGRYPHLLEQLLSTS
# Sequence of HA-BIR3 of XIAP (P98170 253-347 limits assumed): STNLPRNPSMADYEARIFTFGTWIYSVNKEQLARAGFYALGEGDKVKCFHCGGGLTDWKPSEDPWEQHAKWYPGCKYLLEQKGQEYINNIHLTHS
stabilization of HA-BIR3 in cell (western blot band intensity) (HA-BIR3 of XIAP),plasma stability t1/2 (Plasma stability),solubility in aqueous buffer (soluble up to) [1],Structure (SMILES),induction of apoptosis by co-treatment with TNFα (A549 cells),induction of apoptosis by co-treatment with TNFα (SK-MEL-28 cells),mass increase of cIAP1-BIR3 (covalent adduct) (BIR3 domain of cIAP1)
stabilized the BIR3 domain,similar,similar,CN[C@@H](C)C(=O)N[C@H]1CN(C(=O)CC(C)C)CC[C@H]2CC[C@@H](C(=O)NC(c3ccccc3)c3ccccc3)N2C1=O [AT406],Time- and dose-dependent apoptosis was restored,Time- and dose-dependent apoptosis was restored,
,,,"CN[C@@H](C)C(=O)N[C@@H](Cc1ccc(OS(=O)(=O)F)cc1)C(=O)N1CCC[C@H]1C(=O)N[C@@H]1CCc2c(F)cccc21 [Compound 1, 4-((S)-3-((S)-2-(((R)-4-fluoro-2,3-dihydro-1-H-inden-1-yl)carbamoyl)pyrrolidin-1yl)-2-((S)-2-(methylamino)propanamido)-3-oxopropyl)phenyl sulfurofluoridate]",,,no increase in mass
stabilized the BIR3 domain,similar,similar,CN[C@@H](C)C(=O)N[C@H](C(=O)N1CCC[C@H]1c1nc(C(=O)c2ccc(F)cc2)cs1)C1CCCCC1 [LCL161],Time- and dose-dependent apoptosis was restored,Time- and dose-dependent apoptosis was restored,
